Results as given in the NIST ThermoML archive (doi:10.1021/je901050v).
± gives the expanded uncertainty stated by the source.

How the values were obtained:
[1] = 101.33 kPa, Liquid; for mass density: Vibrating tube method; for viscosity: Concentric cylinders viscometry
[2] = refractive index (Na D-line) (dimensionless); settings: 101.33 kPa, Liquid, Standard Abbe refractometry

Row | Structure (SMILES) | mass density ([1]; 308.15 K) [kg/m3] | viscosity ([1]; 313.15 K) [mPa·s] | mass density ([1]; 313.15 K) [kg/m3] | viscosity ([1]; 318.15 K) [mPa·s] | mass density ([1]; 318.15 K) [kg/m3] | viscosity ([1]; 323.15 K) [mPa·s] | mass density ([1]; 323.15 K) [kg/m3] | viscosity ([1]; 328.15 K) [mPa·s] | mass density ([1]; 328.15 K) [kg/m3] | viscosity ([1]; 333.15 K) [mPa·s] | mass density ([1]; 333.15 K) [kg/m3] | viscosity ([1]; 338.15 K) [mPa·s] | mass density ([1]; 338.15 K) [kg/m3] | viscosity ([1]; 343.15 K) [mPa·s] | mass density ([1]; 343.15 K) [kg/m3] | viscosity ([1]; 348.15 K) [mPa·s] | mass density ([1]; 348.15 K) [kg/m3] | viscosity ([1]; 353.15 K) [mPa·s] | mass density ([1]; 353.15 K) [kg/m3] | refractive index ([2]; 308.15 K) | other results
1 | CCCCCCCCn1cc[n+](CCC#N)c1.[Br-] [3-(2-cyanoethyl)-1-octyl-1H-imidazolium bromide] | 1169.8 ± 1.1 | 13044 ± 980 | 1166.4 ± 1.1 | 8302.7 ± 570 | 1163 ± 1.1 | 5136.1 ± 320 | 1159.6 ± 1.1 | 3291.8 ± 190 | 1156.2 ± 1.1 | 2160.4 ± 110 | 1152.9 ± 1.1 | 1459.8 ± 67 | 1149.5 ± 1.1 | 1019.6 ± 42 | 1146.1 ± 1.1 | 727.9 ± 26 | 1142.8 ± 1.1 | 530.5 ± 17 | 1139.6 ± 1 | 1.51266 ± 0.00037 | mass density ([1]; 293.15 K): 1180.1 ± 1.1 kg/m3; mass density ([1]; 298.15 K): 1176.6 ± 1.1 kg/m3; mass density ([1]; 303.15 K): 1173.2 ± 1.1 kg/m3; viscosity ([1]; 308.15 K): 19620 ± 1600 mPa·s; refractive index ([2]; 298.15 K): 1.51473 ± 0.00037; refractive index ([2]; 303.15 K): 1.51362 ± 0.00037; refractive index ([2]; 313.15 K): 1.51149 ± 0.00037; refractive index ([2]; 318.15 K): 1.51024 ± 0.00037; refractive index ([2]; 323.15 K): 1.50891 ± 0.00037; refractive index ([2]; 328.15 K): 1.50757 ± 0.00037; refractive index ([2]; 333.15 K): 1.50604 ± 0.00037
2 | CCCCCCn1cc[n+](CCC#N)c1.[Br-] [3-(2-cyanoethyl)-1-hexyl-1H-imidazolium bromide] | 1222.3 ± 1.1 | 5610.4 ± 360 | 1219 ± 1.1 | 3602.1 ± 210 | 1215.7 ± 1.1 | 2379.9 ± 120 | 1212.4 ± 1.1 | 1618.2 ± 76 | 1209.1 ± 1.1 | 1128.4 ± 48 | 1205.8 ± 1.1 | 805.1 ± 30 | 1202.5 ± 1.1 | 639.6 ± 22 | 1199.2 ± 1.1 | 465.7 ± 14 | 1195.9 ± 1.1 | 359.3 ± 9.7 | 1192.7 ± 1.1 | 1.52719 ± 0.00037 | mass density ([1]; 293.15 K): 1232.4 ± 1.1 kg/m3; mass density ([1]; 298.15 K): 1229 ± 1.1 kg/m3; viscosity ([1]; 303.15 K): 15893 ± 1200 mPa·s; mass density ([1]; 303.15 K): 1225.6 ± 1.1 kg/m3; viscosity ([1]; 308.15 K): 9029.8 ± 630 mPa·s; refractive index ([2]; 298.15 K): 1.52872 ± 0.00037; refractive index ([2]; 303.15 K): 1.52823 ± 0.00037; refractive index ([2]; 313.15 K): 1.526 ± 0.00037; refractive index ([2]; 318.15 K): 1.52479 ± 0.00037; refractive index ([2]; 323.15 K): 1.52354 ± 0.00037; refractive index ([2]; 328.15 K): 1.52229 ± 0.00037; refractive index ([2]; 333.15 K): 1.52117 ± 0.00037
3 | CCCCn1cc[n+](CCC#N)c1.[Br-] [1-butyl-3-(2-cyanoethyl)-1H-imidazolium bromide] | 1297.7 ± 1.1 | 4502.1 ± 270 | 1294.3 ± 1.1 | 2953 ± 160 | 1291 ± 1.1 | 1989.7 ± 99 | 1287.6 ± 1.1 | 1377.5 ± 62 | 1284.4 ± 1.1 | 975.6 ± 39 | 1281.2 ± 1.1 | 705.8 ± 25 | 1277.9 ± 1.1 | 520.5 ± 17 | 1274.7 ± 1.1 | 390.7 ± 11 | 1271.4 ± 1.1 | 298.1 ± 7.4 | 1268.2 ± 1.1 | 1.54346 ± 0.00037 | mass density ([1]; 293.15 K): 1308.5 ± 1.1 kg/m3; viscosity ([1]; 298.15 K): 19103 ± 1500 mPa·s; mass density ([1]; 298.15 K): 1304.7 ± 1.1 kg/m3; viscosity ([1]; 303.15 K): 11304 ± 830 mPa·s; mass density ([1]; 303.15 K): 1301.1 ± 1.1 kg/m3; viscosity ([1]; 308.15 K): 7058.4 ± 470 mPa·s; refractive index ([2]; 298.15 K): 1.5454 ± 0.00037; refractive index ([2]; 303.15 K): 1.54454 ± 0.00037; refractive index ([2]; 313.15 K): 1.54229 ± 0.00037; refractive index ([2]; 318.15 K): 1.54111 ± 0.00037; refractive index ([2]; 323.15 K): 1.53992 ± 0.00037; refractive index ([2]; 328.15 K): 1.53869 ± 0.00037; refractive index ([2]; 333.15 K): 1.53748 ± 0.00037
4 | CCCCCCCCCCn1cc[n+](CCC#N)c1.[Br-] [3-(2-cyanoethyl)-1-decyl-1H-imidazolium bromide] | 1134.2 ± 1 | 16702 ± 1300 | 1129.5 ± 1 | 10314 ± 740 | 1125.6 ± 1 | 6813.4 ± 450 | 1121.2 ± 1 | 4573.6 ± 280 | 1118.2 ± 1 | 3016.4 ± 170 | 1115 ± 1 | 2051.2 ± 100 | 1111.7 ± 1 | 1426.6 ± 65 | 1108.5 ± 1 | 1014.6 ± 42 | 1105.2 ± 1 | 737 ± 27 | 1101.9 ± 1 | 1.50786 ± 0.00037 | refractive index ([2]; 313.15 K): 1.50696 ± 0.00037; refractive index ([2]; 318.15 K): 1.50606 ± 0.00037; refractive index ([2]; 323.15 K): 1.50502 ± 0.00037; refractive index ([2]; 328.15 K): 1.50388 ± 0.00037; refractive index ([2]; 333.15 K): 1.50279 ± 0.00037
